Laboratory results taken from ChEMBL document CHEMBL1130571, “Synthesis and evaluation of novel-N-[2-(bis-aryl-methoxy)ethyl-N-aralkyl-,-alkanediamines as potent and selective dopamine reuptake inhibitors: Seco analogs of GBR12935 and GBR12909” (Bioorg Med Chem Lett, 1997).
Structures can show the parent of a compound that is named as a salt.

Columns and labels:
[1] = biological target: Sodium-dependent dopamine transporter (Rattus norvegicus, UniProt P23977); assay: Compound was tested for its ability to inhibit the neurotransmitter dopamine-DA reuptake system using [3H]dopamine as radioligand
[2] = biological target: Norepinephrine transporter (Rattus norvegicus, UniProt Q9WTR4); assay: Norepinephrine transporter activity was determined by the ability of compound to inhibit the neurotransmitter norepinephrine-NE reuptake system using [3H]norepinephrine as radioligand
[3] = biological target: Sodium-dependent serotonin transporter (Rattus norvegicus, UniProt P31652); assay: Compound was tested for its ability to inhibit the neurotransmitter serotonin-5-HT reuptake system using [3H]5-HT as radioligand
[4] = Selectivity of compound towards DA transporter to that of NE transporter

Norepinephrine transporter, sequence (Q9WTR4 whole entry): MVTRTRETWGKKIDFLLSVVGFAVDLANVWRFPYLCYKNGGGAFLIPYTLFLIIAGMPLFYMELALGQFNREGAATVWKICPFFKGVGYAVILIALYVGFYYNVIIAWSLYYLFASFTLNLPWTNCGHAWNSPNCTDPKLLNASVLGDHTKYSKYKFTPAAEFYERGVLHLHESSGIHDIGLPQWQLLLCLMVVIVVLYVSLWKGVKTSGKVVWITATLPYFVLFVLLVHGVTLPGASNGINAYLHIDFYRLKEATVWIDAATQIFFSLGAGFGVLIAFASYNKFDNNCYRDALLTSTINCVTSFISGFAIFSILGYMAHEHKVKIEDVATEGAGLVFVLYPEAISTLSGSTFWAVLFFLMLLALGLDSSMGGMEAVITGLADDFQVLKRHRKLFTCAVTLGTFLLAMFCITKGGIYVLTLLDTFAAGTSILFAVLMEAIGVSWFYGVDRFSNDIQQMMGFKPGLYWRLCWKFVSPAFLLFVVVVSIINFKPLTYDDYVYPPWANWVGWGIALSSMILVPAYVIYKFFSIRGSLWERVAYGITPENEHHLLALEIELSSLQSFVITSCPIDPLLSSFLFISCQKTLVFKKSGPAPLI
Sodium-dependent serotonin transporter, sequence (P31652 whole entry): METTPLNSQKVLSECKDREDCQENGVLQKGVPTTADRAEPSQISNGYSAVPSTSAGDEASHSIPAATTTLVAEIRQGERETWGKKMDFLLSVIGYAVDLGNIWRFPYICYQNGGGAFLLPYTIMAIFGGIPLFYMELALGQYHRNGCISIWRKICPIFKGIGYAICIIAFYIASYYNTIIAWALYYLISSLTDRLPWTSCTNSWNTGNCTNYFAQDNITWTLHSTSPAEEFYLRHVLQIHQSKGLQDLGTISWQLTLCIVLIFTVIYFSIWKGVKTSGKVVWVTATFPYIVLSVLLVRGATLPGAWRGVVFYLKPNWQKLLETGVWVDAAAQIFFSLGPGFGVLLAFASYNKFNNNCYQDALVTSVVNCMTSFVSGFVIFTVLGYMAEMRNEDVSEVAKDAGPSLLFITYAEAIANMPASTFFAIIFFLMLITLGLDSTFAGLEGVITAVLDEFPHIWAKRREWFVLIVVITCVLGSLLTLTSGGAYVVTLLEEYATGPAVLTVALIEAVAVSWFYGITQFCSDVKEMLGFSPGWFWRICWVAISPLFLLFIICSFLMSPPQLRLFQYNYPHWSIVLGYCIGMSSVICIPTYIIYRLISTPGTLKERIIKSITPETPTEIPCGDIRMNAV
Sodium-dependent dopamine transporter, sequence (P23977 whole entry): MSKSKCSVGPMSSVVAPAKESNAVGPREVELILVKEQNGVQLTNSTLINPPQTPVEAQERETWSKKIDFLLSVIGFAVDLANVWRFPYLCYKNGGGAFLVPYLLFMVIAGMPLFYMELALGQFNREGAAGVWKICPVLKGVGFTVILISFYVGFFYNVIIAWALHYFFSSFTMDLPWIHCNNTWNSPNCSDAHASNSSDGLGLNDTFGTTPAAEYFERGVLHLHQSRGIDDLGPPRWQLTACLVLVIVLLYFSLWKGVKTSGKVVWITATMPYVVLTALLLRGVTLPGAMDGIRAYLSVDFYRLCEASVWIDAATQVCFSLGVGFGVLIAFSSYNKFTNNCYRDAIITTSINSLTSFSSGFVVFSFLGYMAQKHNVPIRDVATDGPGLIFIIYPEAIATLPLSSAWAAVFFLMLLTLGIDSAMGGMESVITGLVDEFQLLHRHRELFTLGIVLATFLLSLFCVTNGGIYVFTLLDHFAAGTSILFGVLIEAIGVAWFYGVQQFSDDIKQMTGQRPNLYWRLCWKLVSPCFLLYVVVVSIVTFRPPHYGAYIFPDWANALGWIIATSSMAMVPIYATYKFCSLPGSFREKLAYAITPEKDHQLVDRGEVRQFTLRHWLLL

SMILES	IC50 [1]	IC50 [2]	IC50 [3]	Selectivity [4]
I/C=C\CN1CCN(CCOC(c2ccccc2)c2ccccc2)CC1	780 nM	2190 nM	> 10000 nM	3
CC(NC(C)(C)C)C(=O)c1cccc(Cl)c1 (stereo not given) [BUPROPION HYDROCHLORIDE]	1230 nM			
Fc1ccc(C(OCCNCCNCCCc2ccccc2)c2ccc(F)cc2)cc1	49 nM	> 10000 nM	500 nM	> 200
c1ccc(CCCNCCCNCCOC(c2ccccc2)c2ccccc2)cc1	150 nM	> 10000 nM	> 10000 nM	> 65
c1ccc(CCCNCCNCCOC(c2ccccc2)c2ccccc2)cc1	1230 nM	> 10000 nM	> 10000 nM	> 8
I/C=C/CN1CCN(CCOC(c2ccccc2)c2ccccc2)CC1	505 nM	> 10000 nM	> 10000 nM	> 20
CN(CCCc1ccccc1)CCN(C)CCOC(c1ccc(F)cc1)c1ccc(F)cc1	10 nM	> 10000 nM	1500 nM	> 1000
